Test results taken from publication PMC8128165, “Effect of amino acids and amines on the activity of the recombinant ι-carbonic anhydrase from the Gram-negative bacterium Burkholderia territorii” (Journal of Enzyme Inhibition and Medicinal Chemistry, 2021).

System: BteCAι
Test: stopped-flow CO2 hydration assay (activation)
Type: biochemical, Burkholderia territorii
Conditions: activation constant (not an association constant); CO2 substrate; 10 mM HEPES pH 7.5, 0.1 M NaClO4; 25 °C; activator
From the text: stopped-flow CO2 hydration assay (activation) on BteCAι

Question: How did the “KA (μM)* / BteCAι^b” value turn out when `N[C@@H](Cc1cnc[nH]1)C(=O)O` [compound 1, L-His] was run?
Answer: 8.6 µM

Question: `N[C@H](Cc1c[nH]cn1)C(=O)O` [compound 2, D-His] was tested. Which “KA (μM)* / BteCAι^b” value did it give?
Answer: 6.2 µM

Question: With `N[C@H](Cc1ccccc1)C(=O)O` [compound 4, D-Phe] as the compound, how does the “KA (μM)* / BteCAι^b” value read?
Answer: 9.4 µM

Question: Which “KA (μM)* / BteCAι^b” value does the source give for `N[C@@H](Cc1ccc(O)c(O)c1)C(=O)O` [compound 5, L-DOPA] here?
Answer: 4.3 µM

Question: `N[C@H](Cc1ccc(O)c(O)c1)C(=O)O` [compound 6, D-DOPA] was tested. Which “KA (μM)* / BteCAι^b” value did it give?
Answer: 11.7 µM

Question: `N[C@@H](Cc1c[nH]c2ccccc12)C(=O)O` [compound 7, L-Trp] was tested. Which “KA (μM)* / BteCAι^b” value did it give?
Answer: 10.2 µM

Question: How did the “KA (μM)* / BteCAι^b” value turn out when `N[C@H](Cc1c[nH]c2ccccc12)C(=O)O` [compound 8, D-Trp] was run?
Answer: 6.1 µM

Question: How did the “KA (μM)* / BteCAι^b” value turn out when `N[C@@H](Cc1ccc(O)cc1)C(=O)O` [compound 9, L-Tyr] was run?
Answer: 8.0 µM

Question: Which “KA (μM)* / BteCAι^b” value does the source give for `N[C@H](Cc1ccc(O)cc1)C(=O)O` [compound 10, D-Tyr] here?
Answer: 7.3 µM

Question: With `Nc1ccc(C[C@H](N)C(=O)O)cc1` [compound 11, 4-H2N-L-Phe] as the compound, how does the “KA (μM)* / BteCAι^b” value read?
Answer: 6.9 µM

Question: For `NCCc1c[nH]cn1` [compound 12, Histamine], which “KA (μM)* / BteCAι^b” value is on record?
Answer: 6.0 µM

Question: With `NCCc1ccc(O)c(O)c1` [compound 13, Dopamine] as the compound, how does the “KA (μM)* / BteCAι^b” value read?
Answer: 8.7 µM

Question: For `NCCc1c[nH]c2ccc(O)cc12` [compound 14, Serotonin], which “KA (μM)* / BteCAι^b” value is on record?
Answer: 13.3 µM

Question: `NCCN1CCNCC1` [compound 17, 1-(2-Aminoethyl)-piperazine] was tested. Which “KA (μM)* / BteCAι^b” value did it give?
Answer: 3.9 µM

Question: `NCCN1CCOCC1` [compound 18, 4-(2-Aminoethyl)-morpholine] was tested. Which “KA (μM)* / BteCAι^b” value did it give?
Answer: 12.0 µM

Question: `CNC[C@H](O)c1ccc(O)c(O)c1` [compound 19, L-Adrenaline] was tested. Which “KA (μM)* / BteCAι^b” value did it give?
Answer: 9.7 µM

Question: `N[C@@H](CC(=O)O)C(=O)O` [compound 21, L-Asp] was tested. Which “KA (μM)* / BteCAι^b” value did it give?
Answer: 8.4 µM

Question: `N[C@H](CCC(=O)O)C(=O)O` [compound 23, D-Glu] was tested. Which “KA (μM)* / BteCAι^b” value did it give?
Answer: 8.5 µM

Question: For `NC(=O)CC[C@H](N)C(=O)O` [compound 24, L-Gln], which “KA (μM)* / BteCAι^b” value is on record?
Answer: 5.8 µM
